Data published in patent US10968169B2, “Urea derivative” (Daiichi Sankyo Company, Limited, priority 2016, dated 2021).
Like-named read-outs stand apart in the source and are kept apart here.

Key:
[1] = molecular target: tryptophanase of Bacteroides thetaiotamicron (Bacteroides thetaiotaomicron, UniProt Q8A7N2); test: Tryptophanase enzyme inhibitory activity (LDH-coupled NADH loss); format: biochemical; conditions: L-tryptophan 10 mM, 37° C., absorbance at 340 nm; read-out: Bacteroides Activity of Inhibiting Tryptophanase (IC50)
Sequence of tryptophanase of Bacteroides thetaiotamicron (Q8A7N2 entry or part of it, change not shown): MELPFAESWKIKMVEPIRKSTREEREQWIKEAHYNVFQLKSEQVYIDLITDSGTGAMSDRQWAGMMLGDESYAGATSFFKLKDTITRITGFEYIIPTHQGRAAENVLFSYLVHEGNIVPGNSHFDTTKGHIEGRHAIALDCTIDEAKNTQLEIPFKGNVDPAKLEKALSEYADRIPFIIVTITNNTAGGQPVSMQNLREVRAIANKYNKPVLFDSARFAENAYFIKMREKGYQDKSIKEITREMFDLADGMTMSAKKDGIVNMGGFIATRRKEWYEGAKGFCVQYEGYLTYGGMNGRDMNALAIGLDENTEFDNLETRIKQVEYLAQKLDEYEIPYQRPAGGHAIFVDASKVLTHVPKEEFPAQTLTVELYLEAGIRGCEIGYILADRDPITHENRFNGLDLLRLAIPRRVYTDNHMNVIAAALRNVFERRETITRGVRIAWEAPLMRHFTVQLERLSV
Procedure: Tryptophanase inhibitory activity was evaluated by a method using lactate dehydrogenase (LDH). The reaction time-dependent reduction in NADH conjugated with the enzymatic reaction, with LDH, of pyruvic acid produced through the enzymatic reaction of L-tryptophan as a substrate with tryptophanase, was measured with a spectrophotometer (Phillips-R S et al., Biochemistry, 23, 6228-6234 (1984)). Enzyme inhibitory activity obtained without adding a test compound (by adding DMSO alone) in the presence of tryptophanase was used as a control. As the enzyme, tryptophanase of Bacteroides thetaiotamicron (Genbank accession number: HC914434.1) was used. A test compound solution was prepared by dissolving each test compound in DMSO in an arbitrary concentration (from 30 mM to 30 nM at 10-fold common ratio). LDH, NADH and L-tryptophan were prepared, using distilled water, respectively to concentrations of 80 units/mL, 10 mM and […]. Bacteroides tryptophanase was prepared to 30 mg/mL. A potassium phosphate buffer was used as the buffer. [table] A reaction solution A was dispensed at 284.8 μL per well into a 96-well plate, and the test compound solution was added at 3.2 μL per well to obtain a final concentration of 1/100 (reaction solution B). The reaction solution B was incubated at 37° C. for 30 minutes, L-tryptophan was added thereto at 32 μL per well to obtain a final concentration of 10 mM (reaction solution C), and the enzyme reaction was performed at 37° C. over 30 minutes with absorbance at 340 nm measured for monitoring the NADH loss. Based on the NADH loss, the tryptophanase inhibitory activity of the compound was evaluated. Besides, the following compounds were similarly tested instead of the test compound.

[2] = test system: indoxyl sulfate concentration in the plasma; test: Effect of reducing indoxyl sulfate concentration in the plasma of mice; format: in vivo, male BALB/c mouse; conditions: oral
Procedure: An effect of a tryptophanase inhibitory compound to reduce an indoxyl sulfate concentration in the plasma of a mouse can be evaluated through the following operation.
After fasting a male BALB/c mouse overnight, a tryptophanase compound dissolved or suspended at a concentration of 0.01 to 10 mg/mL in a 0.5% methylcellulose (MC) solution used as a solvent and a 0.5% MC solution are orally administered by gavage at a dose of 10 mL/kg respectively to a test compound group and to a solvent control group. When 30 minutes have elapsed after the administration of the test compound or the solvent, L-tryptophan, that is, a substrate of tryptophanase, is orally administered by gavage at a dose of 1 to 3 g/kg. The L-tryptophan is suspended in a 0.5% tragacanth solution. For 12 hours after the administration of the L-tryptophan, blood is collected over time from a tail vein by using a hematocrit tube. The thus obtained blood is centrifuged at 11,000 rpm for 5 minutes to collect plasma, and the indoxyl sulfate concentration in the plasma is measured singly by liquid chromatography (fluorescence detection) or its combination with a mass spectrometer used subsequently. The indoxyl sulfate concentration in the plasma of the test compound group against the indoxyl sulfate concentration in the plasma of the solvent control group is calculated as, for example, a ratio of the area under a curve of the indoxyl sulfate concentration, and thus, the efficacy of each compound in a living body can be compared.
The indoxyl sulfate concentrations in plasma obtained by using the compounds of the respective examples shown in Table 12 below were measured by the above-described method to evaluate the effect of reducing indoxyl sulfate concentration.

Bacteroides = test: Indole production suppressing effect in viable bacteria; format: cell-based; conditions: indole concentration in culture supernatant, read-out: Eroides Activity of Inhibiting Indole Production(IC50)
Procedure: The effect of a tryptophanase inhibitory compound to suppress indole production from a viable bacterium can be evaluated through the following operation. When E. coli (Escherichia Coli) is used as a strain known to produce indole, the strain is cultured in an LB medium at 37° C. for 12 to 18 hours under anaerobic conditions, and then, suspended in an assay medium (5 mM L-Tryptophan/PBS(+)/25 mM HEPES (pH8)) in such a manner as to obtain O.D. of about 0.3. When bacteroides is used, the strain is cultured in a modified GAM medium at 37° C. for 12 to 18 hours under anaerobic conditions, and then suspended in an assay medium (5 mM L-Tryptophan/PBS(+)/25 mM HEPES (pH8)) in such a manner as to obtain O.D. of about 1.1. The thus obtained viable bacterial suspension prepared to have a final concentration of a compound of 1 μM to 10 mM is dispensed at 200 μL per well into a 96-well plate and cultured at 37° C. for 2 to 4 hours under anaerobic conditions, and O.D., an ATP concentration (that can be quantitatively determined by using BacTiter-Glo (Promega Corporation)) and an indole concentration in the culture supernatant (that can be quantitatively determined by utilizing Ehrlich reaction) are measured. The effect of the tryptophanase inhibitory compound to suppress indole production from a viable bacterium can be evaluated depending on the degree of lowering of the indole concentration in the culture supernatant. It can be checked whether or not the effect is derived from a function other than tryptophanase inhibition, such as a bactericidal function or a bacterial growth inhibitory function, depending on lowering of the O.D. or reduction in the ATP concentration or by performing a generally practiced antibacterial activity test (a MIC (minimum growth inhibition concentration) test) using levofloxacin or the like as a positive control. The activities of inhibiting indole production of the compounds of the respective examples shown in Table 11 were measured by the above-described method using Bacteroides to evaluate the effect of inhibiting indole production.

CCC(NC(=O)Nc1cccc(C#N)c1)(C(=O)O)C1CC1 (single isomer, unassigned) [(+) Isomer Compound of Example 33, (+)-2-{[(3-Cyanophenyl)carbamoyl]amino}-2-cyclopropylbutanoic acid]
IC50 [1]: 0.6 µM
Indoxyl Sulfate Reduction Effect in Male BALB/c Mouse Plasma (Indoxyl sulfate reduction effect in plasma 6 hours after administering L-tryptophan: ED75−, mg/kg) [2]: 1 mg/kg
IC50 (Bacteroides): < 3 µM

CC[C@@](NC(=O)Nc1cccc(C#N)c1)(C(=O)O)C1CC1 [(−) Isomer Compound of Example 33, (−)-2-{[(3-cyanophenyl)carbamoyl]amino}-2-cyclopropylbutanoic acid]
IC50 [1]: 7.7 µM
Indoxyl Sulfate Reduction Effect in Male BALB/c Mouse Plasma (Indoxyl sulfate reduction effect in plasma 6 hours after administering L-tryptophan: ED75−, mg/kg) [2]: >1 mg/kg
IC50 (Bacteroides): 9 µM

CCC(CC)(NC(=O)Nc1ccccc1)C(=O)O [Compound A, 2-ethyl-2-[(phenylcarbamoyl)amino]butanoic acid]
IC50 [1]: 20 µM
Indoxyl Sulfate Reduction Effect in Male BALB/c Mouse Plasma (Indoxyl sulfate reduction effect in plasma 6 hours after administering L-tryptophan: ED75−, mg/kg) [2]: 1 mg/kg
IC50 (Bacteroides; Bacteroides): 8 µM

CCC(CC)(NC(=O)Nc1cccc(Cl)c1)C(=O)O [Compound B, 2-{[(3-chlorophenyl)carbamoyl]amino}-2-ethylbutanoic acid]
IC50 [1]: 7.4 µM
Indoxyl Sulfate Reduction Effect in Male BALB/c Mouse Plasma (Indoxyl sulfate reduction effect in plasma 6 hours after administering L-tryptophan: ED75−, mg/kg) [2]: >1 mg/kg
IC50 (Bacteroides; Bacteroides): < 3 µM

CCC(CC)(NC(=O)Nc1ccc(Cl)cc1)C(=O)O [Compound C, 2-{[(4-chlorophenyl)carbamoyl]amino}-2-ethylbutanoic acid]
IC50 [1]: 16 µM
Indoxyl Sulfate Reduction Effect in Male BALB/c Mouse Plasma (Indoxyl sulfate reduction effect in plasma 6 hours after administering L-tryptophan: ED75−, mg/kg) [2]: >1 mg/kg
IC50 (Bacteroides; Bacteroides): 6 µM

CCC(CC)(NC(=O)Nc1ccc(F)cc1)C(=O)O [Compound D, 2-ethyl-2-{[(4-fluorophenyl)carbamoyl]amino}butanoic acid]
IC50 [1]: 38.1 µM
Indoxyl Sulfate Reduction Effect in Male BALB/c Mouse Plasma (Indoxyl sulfate reduction effect in plasma 6 hours after administering L-tryptophan: ED75−, mg/kg) [2]: 1 mg/kg
IC50 (Bacteroides; Bacteroides): 11 µM

CCC(CC)(NC(=O)Nc1cccc(F)c1)C(=O)O [Compound E, 2-ethyl-2-{[(3-fluorophenyl)carbamoyl]amino}butanoic acid]
IC50 [1]: 18.9 µM
Indoxyl Sulfate Reduction Effect in Male BALB/c Mouse Plasma (Indoxyl sulfate reduction effect in plasma 6 hours after administering L-tryptophan: ED75−, mg/kg) [2]: >1 mg/kg
IC50 (Bacteroides; Bacteroides): 7 µM

CCC(CC)(NC(=O)Nc1cccc(C#N)c1)C(=O)O [Compound F, 2-{[(3-cyanophenyl)carbamoyl]amino}-2-ethylbutanoic acid]
IC50 [1]: 16.5 µM
Indoxyl Sulfate Reduction Effect in Male BALB/c Mouse Plasma (Indoxyl sulfate reduction effect in plasma 6 hours after administering L-tryptophan: ED75−, mg/kg) [2]: 1 mg/kg
IC50 (Bacteroides; Bacteroides): 12 µM

CCC(CC)(NC(=O)Nc1ccc(CC#N)cc1)C(=O)O [Compound G, 2-({[4-(cyanomethyl)phenyl]carbamoyl}amino)-2-ethylbutanoic acid]
IC50 [1]: 4.7 µM
Indoxyl Sulfate Reduction Effect in Male BALB/c Mouse Plasma (Indoxyl sulfate reduction effect in plasma 6 hours after administering L-tryptophan: ED75−, mg/kg) [2]: 1 mg/kg
IC50 (Bacteroides; Bacteroides): 8 µM

CCC(CC)(NC(=O)Nc1ccsc1)C(=O)O [Compound H, 2-ethyl-2-[(thiophen-3-ylcarbamoyl)amino]butanoic acid]
IC50 [1]: 34.1 µM
Indoxyl Sulfate Reduction Effect in Male BALB/c Mouse Plasma (Indoxyl sulfate reduction effect in plasma 6 hours after administering L-tryptophan: ED75−, mg/kg) [2]: 1 mg/kg
IC50 (Bacteroides; Bacteroides): 11 µM

CC[C@@](C)(NC(=O)Nc1ccc(OC(F)F)cc1)C(=O)O [Example 8, (−)-N-{[4-(Difluoromethoxy)phenyl]carbamoyl}-D-isovaline]
IC50 [1]: 12.8 µM
Indoxyl Sulfate Reduction Effect in Male BALB/c Mouse Plasma (Indoxyl sulfate reduction effect in plasma 6 hours after administering L-tryptophan: ED75−, mg/kg) [2]: 1 mg/kg
IC50 (Bacteroides; Bacteroides): 7 µM

CC[C@@](C)(NC(=O)Nc1ccc(OC(F)F)c(F)c1)C(=O)O [Example 15, (−)-N-{[4-(Difluoromethoxy)-3-fluorophenyl]carbamoyl}-D-isovaline]
IC50 [1]: 13.5 µM
Indoxyl Sulfate Reduction Effect in Male BALB/c Mouse Plasma (Indoxyl sulfate reduction effect in plasma 6 hours after administering L-tryptophan: ED75−, mg/kg) [2]: 1 mg/kg
IC50 (Bacteroides; Bacteroides): 14 µM

CC[C@@](C)(NC(=O)Nc1ccc(Cl)cc1)C(=O)O [Example 25, (−)-N-[(4-Chlorophenyl)carbamoyl]-D-isovaline]
IC50 [1]: 26.8 µM
Indoxyl Sulfate Reduction Effect in Male BALB/c Mouse Plasma (Indoxyl sulfate reduction effect in plasma 6 hours after administering L-tryptophan: ED75−, mg/kg) [2]: 1 mg/kg
IC50 (Bacteroides; Bacteroides): 23 µM

CCC(CC)(NC(=O)Nc1csc(Cl)c1)C(=O)O [Example 27, 2-{[(5-Chlorothiophen-3-yl)carbamoyl]amino}-2-ethylbutanoic acid]
IC50 [1]: 6 µM
Indoxyl Sulfate Reduction Effect in Male BALB/c Mouse Plasma (Indoxyl sulfate reduction effect in plasma 6 hours after administering L-tryptophan: ED75−, mg/kg) [2]: 1 mg/kg
IC50 (Bacteroides; Bacteroides): 5 µM

CC[C@@](C)(NC(=O)Nc1ccc(Br)cc1)C(=O)O [Example 30, (−)-N-[(4-Bromophenyl)carbamoyl]-D-isovaline]
IC50 [1]: 22.1 µM
Indoxyl Sulfate Reduction Effect in Male BALB/c Mouse Plasma (Indoxyl sulfate reduction effect in plasma 6 hours after administering L-tryptophan: ED75−, mg/kg) [2]: 1 mg/kg
IC50 (Bacteroides; Bacteroides): 14 µM

CC[C@@](C)(NC(=O)Nc1ccc(I)cc1)C(=O)O [Example 31, (−)-N-[(4-Iodophenyl)carbamoyl]-D-isovaline]
IC50 [1]: 7.9 µM
Indoxyl Sulfate Reduction Effect in Male BALB/c Mouse Plasma (Indoxyl sulfate reduction effect in plasma 6 hours after administering L-tryptophan: ED75−, mg/kg) [2]: 1 mg/kg
IC50 (Bacteroides; Bacteroides): < 3 µM
